Measurements taken from US5041567A, “Antibacterial monic acid derivatives” (Beecham Group plc, priority 1982, dated 1991).
Converted amounts (≈) assume the structure as drawn.

Key:
Past. haemolytica PA5 = test: MIC against veterinary bacteria in vitro; conditions: Mannheimia haemolytica, PA5, 18 h
Description: (§1) The activity of the compounds of the Examples against various veterinarily important bacteria, was assayed in vitro using two-fold serial dilutions in Diagnostic Sensitivity Test Agar inoculated with 10^4 organisms.

M. pneumoniae ATCC 15492 = test: MIC against mycoplasma in vitro; type: cell-based; conditions: Mycoplasmoides pneumoniae, ATCC15492, 144 h; M. pneumoniae ATCC 15492; 6 days, 37° C.; read-out: MIC
[1] = test system: Strep. suis (group D) SPS11; test: MIC against veterinary bacteria in vitro; conditions: Streptococcus suis, 18 h
Description: as §1

M. dispar NCTC 10125 = test: MIC against mycoplasma in vitro; type: cell-based; conditions: 144 h
[2] = test system: Erysipelothrix rhusiopathiae NCTC 8163; test: MIC against veterinary bacteria in vitro; conditions: Erysipelothrix rhusiopathiae, NCTC8163, 18 h
Description: as §1

Past. multocida PA2 = test: MIC against veterinary bacteria in vitro; conditions: Pasteurella multocida, PA2, 18 h
Description: as §1

Strep. agalactiae SPA1 = test: MIC against veterinary bacteria in vitro; conditions: Streptococcus agalactiae, SPA1, 18 h
Description: as §1

M. bovis NCTC 10131 = test: microbe, parasite or virus in culture; type: cell-based; conditions: NCTC10131, 144 h
[3] = test system: M. suipneumoniae NCTC 10110; test: MIC against mycoplasma in vitro; type: cell-based; conditions: Mesomycoplasma hyopneumoniae, NCTC10110, 144 h; M. suipneumoniae NCTC 10110; 6 days, 37° C.; read-out: MIC
[4] = test system: M. suipneumoniae ATCC 25095; test: MIC against mycoplasma in vitro; type: cell-based; conditions: Mesomycoplasma hyopneumoniae, ATCC25095, 144 h
E. coli E1 = test: MIC against veterinary bacteria in vitro; conditions: Escherichia coli, E1, 18 h
Description: as §1

M. suipneumoniae UCD 1 = test: MIC against mycoplasma in vitro; type: cell-based; conditions: Mesomycoplasma hyopneumoniae, UCD1, 144 h
[5] = test system: Staph. aureus 152 (pen. sens); test: MIC against veterinary bacteria in vitro; conditions: Staphylococcus aureus, 18 h
Description: as §1

Strep. dysgalactiae SPD1 = test: MIC against veterinary bacteria in vitro; conditions: Streptococcus dysgalactiae, SPD1, 18 h
Description: as §1

S. dublin S7 = test: MIC against veterinary bacteria in vitro; conditions: Salmonella enterica, S7, 18 h
Description: as §1

[6] = test system: Staph. aureus B4 (pen. resistant); test: MIC against veterinary bacteria in vitro; conditions: Staphylococcus aureus, 18 h
Description: as §1

[7] = test system: M. bovigenitalium ATCC 14173; test: MIC against mycoplasma in vitro; type: cell-based; conditions: 144 h
M. suipneumoniae HK(2) = test: MIC against mycoplasma in vitro; type: cell-based; conditions: Mesomycoplasma hyopneumoniae, 144 h; M. suipneumoniae HK(2); 6 days, 37° C.; read-out: MIC
Past. multocida PA1 = test: MIC against veterinary bacteria in vitro; conditions: Pasteurella multocida, PA1, 18 h
Description: as §1

M. hyorhinis ATCC 25021 = test: MIC against mycoplasma in vitro; type: cell-based; conditions: Mesomycoplasma hyorhinis, ATCC25021, 144 h; M. hyorhinis ATCC 25021; 6 days, 37° C.; read-out: MIC
Staph. aureus Oxford = test: MIC against veterinary bacteria in vitro; conditions: Staphylococcus aureus, 18 h
Description: as §1

[8] = test system: M. hyosynoviae ATCC 25591; test: MIC against mycoplasma in vitro; type: cell-based; conditions: 144 h
S. typhimurium S18 = test: MIC against veterinary bacteria in vitro; conditions: Salmonella enterica, TYPHIMURIUM, 18 h
Description: as §1

M. hyorhinis ATCC 23234 = test: MIC against mycoplasma in vitro; type: cell-based; conditions: Mesomycoplasma hyorhinis, ATCC23234, 144 h; M. hyorhinis ATCC 23234; 6 days, 37° C.; read-out: MIC
B. subtilis ATCC 6633 = test: MIC against veterinary bacteria in vitro; conditions: Bacillus subtilis, ATCC6633, 18 h
Description: as §1

M. suipneumoniae LABER = test: MIC against mycoplasma in vitro; type: cell-based; conditions: Mesomycoplasma hyopneumoniae, 144 h
M. suipneumoniae JF 435 = test: MIC against mycoplasma in vitro; type: cell-based; conditions: Mesomycoplasma hyopneumoniae, JF435, 144 h
Bord. bronchiseptica B08 = test: MIC against veterinary bacteria in vitro; conditions: Bordetella bronchiseptica, B08, 18 h
Description: as §1

M. suipneumoniae Str. 11 = test: MIC against mycoplasma in vitro; type: cell-based; conditions: Mesomycoplasma hyopneumoniae, STR.11, 144 h
Strep. uberis SPU1 = test: MIC against veterinary bacteria in vitro; conditions: Streptococcus uberis, SPU1, 18 h
Description: as §1

[9] = test system: Corynebacterium pyogenes CY1; test: MIC against veterinary bacteria in vitro; conditions: CY1, 18 h
Description: as §1

E. coli NCTC 10418 = test: MIC against veterinary bacteria in vitro; conditions: Escherichia coli, NCTC10418, 18 h
Description: as §1

M. suipneumoniae TAM 6N = test: MIC against mycoplasma in vitro; type: cell-based; conditions: Mesomycoplasma hyopneumoniae, TAM6N, 144 h; M. suipneumoniae TAM 6N; 6 days, 37° C.; read-out: MIC
M. suipneumoniae MS 16 = test: MIC against mycoplasma in vitro; type: cell-based; conditions: Mesomycoplasma hyopneumoniae, MS16, 144 h
M. gallisepticum S6 = test: MIC against mycoplasma in vitro; type: cell-based; conditions: Mycoplasmoides gallisepticum, S6, 144 h
[10] = test system: M. suipneumoniae J2206/183^b; test: MIC against mycoplasma in vitro; type: cell-based; conditions: Mesomycoplasma hyopneumoniae, 144 h; M. suipneumoniae J2206/183^b; 6 days, 37° C.; read-out: MIC
Bord. bronchiseptica B09 = test: MIC against veterinary bacteria in vitro; conditions: Bordetella bronchiseptica, B09, 18 h
Description: as §1

Question: With `C/C(=C\c1ncc(-c2ccc(Br)s2)o1)C[C@@H]1OC[C@H](C[C@@H]2O[C@H]2[C@@H](C)[C@H](C)O)[C@@H](O)[C@H]1O` [Example 28, 5-[2-(5-Bromo)-thienyl]-2-(1-normon-2-yl)oxazole A] as the molecule, how does the MIC (Past. haemolytica PA5) read?
Answer: Its MIC is 80 µg/mL (≈ 151 µM).

Question: And the MIC (M. pneumoniae ATCC 15492)?
Answer: The MIC was 5 µg/mL (≈ 9.46 µM).

Question: And the MIC [1]?
Answer: The MIC was 10 µg/mL (≈ 18.9 µM).

Question: What about the MIC (M. dispar NCTC 10125) of the same molecule?
Answer: The MIC was 0.1 µg/mL (≈ 0.189 µM).

Question: What about the MIC [2] of the same molecule?
Answer: The MIC was 40 µg/mL (≈ 75.7 µM).

Question: What about the MIC (Past. multocida PA2) of the same molecule?
Answer: The MIC was 2.5 µg/mL (≈ 4.73 µM).

Question: And the MIC (Strep. agalactiae SPA1)?
Answer: Its MIC is 1.25 µg/mL (≈ 2.37 µM).

Question: What about the MIC (M. bovis NCTC 10131) of the same molecule?
Answer: Its MIC is 0.05 µg/mL (≈ 0.0946 µM).

Question: And the MIC [3]?
Answer: Its MIC is 0.5 µg/mL (≈ 0.946 µM).

Question: What about the MIC [4] of the same molecule?
Answer: Its MIC is 0.25 µg/mL (≈ 0.473 µM).

Question: And the MIC (E. coli E1)?
Answer: Its MIC is over 80 µg/mL.

Question: And the MIC (M. suipneumoniae UCD 1)?
Answer: Its MIC is 0.25 µg/mL (≈ 0.473 µM).

Question: What about the MIC [5] of the same molecule?
Answer: The MIC was 0.312 µg/mL (≈ 0.59 µM).

Question: What about the MIC (Strep. dysgalactiae SPD1) of the same molecule?
Answer: The MIC was 0.312 µg/mL (≈ 0.59 µM).

Question: And the MIC (S. dublin S7)?
Answer: The MIC was over 80 µg/mL.

Question: And the MIC [6]?
Answer: The MIC was 0.156 µg/mL (≈ 0.295 µM).

Question: And the MIC [7]?
Answer: Its MIC is 0.1 µg/mL (≈ 0.189 µM).

Question: What about the MIC (M. suipneumoniae HK(2)) of the same molecule?
Answer: The MIC was 0.5 µg/mL (≈ 0.946 µM).

Question: And the MIC (Past. multocida PA1)?
Answer: The MIC was 20 µg/mL (≈ 37.8 µM).

Question: What about the MIC (M. hyorhinis ATCC 25021) of the same molecule?
Answer: The MIC was 0.5 µg/mL (≈ 0.946 µM).

Question: And the MIC (Staph. aureus Oxford)?
Answer: Its MIC is 0.625 µg/mL (≈ 1.18 µM).

Question: What about the MIC [8] of the same molecule?
Answer: Its MIC is 1 µg/mL (≈ 1.89 µM).

Question: What about the MIC (S. typhimurium S18) of the same molecule?
Answer: Its MIC is over 80 µg/mL.

Question: And the MIC (M. hyorhinis ATCC 23234)?
Answer: The MIC was 0.5 µg/mL (≈ 0.946 µM).

Question: And the MIC (B. subtilis ATCC 6633)?
Answer: Its MIC is 0.07 µg/mL (≈ 0.132 µM).

Question: And the MIC (M. suipneumoniae LABER)?
Answer: Its MIC is 0.25 µg/mL (≈ 0.473 µM).

Question: What about the MIC (M. suipneumoniae JF 435) of the same molecule?
Answer: The MIC was 1 µg/mL (≈ 1.89 µM).

Question: What about the MIC (Bord. bronchiseptica B08) of the same molecule?
Answer: Its MIC is 80 µg/mL (≈ 151 µM).

Question: What about the MIC (M. suipneumoniae Str. 11) of the same molecule?
Answer: Its MIC is 0.25 µg/mL (≈ 0.473 µM).

Question: And the MIC (Strep. uberis SPU1)?
Answer: The MIC was under 0.039 µg/mL.

Question: What about the MIC [9] of the same molecule?
Answer: Its MIC is over 80 µg/mL.

Question: And the MIC (E. coli NCTC 10418)?
Answer: The MIC was over 80 µg/mL.

Question: What about the MIC (M. suipneumoniae TAM 6N) of the same molecule?
Answer: Its MIC is 0.5 µg/mL (≈ 0.946 µM).

Question: And the MIC (M. suipneumoniae MS 16)?
Answer: The MIC was 0.25 µg/mL (≈ 0.473 µM).

Question: And the MIC (M. gallisepticum S6)?
Answer: Its MIC is 2.5 µg/mL (≈ 4.73 µM).

Question: And the MIC [10]?
Answer: Its MIC is 0.5 µg/mL (≈ 0.946 µM).

Question: And the MIC (Bord. bronchiseptica B09)?
Answer: Its MIC is 20 µg/mL (≈ 37.8 µM).
